System: DMBA-4 metastatic transplantable rat mammary tumor
Assay: Survival of rats with tumor transplant after laser/sensitizer assisted immunotherapy
Format: in vivo, Wistar Furth female rats
Source text: A diode laser was used in this study. The Industrial Semiconductor Laser ISL50F (McDonnell Douglas Aerospace, St. Louis, Mo.), employs a diode array that is electrically powered by a diode driver. The laser emits radiation at wavelength of 808±10 nm, either in pulsed or in continuous mode. Its maximum near infrared power in the available configuration output is 35 watts. The laser is operated with standard electric power (110/120 VAC). A microprocessor monitors and adjusts the laser operating parameters. Laser energy can be delivered through optical fibers of various sizes. A red laser diode emits 670 nm light at 0.9 mW as the aiming beam. The continuous wave mode was employed in this experiment.
In the experiment, different power and duration of laser irradiation, ranging from 3 minutes at 5 watts to 5 minutes at 15 watts, were used. The output power was measured before, during and after the procedure using a Joule/Watt meter (Ophir Optics, Israel). Two types of fiber optics were used: 600 μm and 1200 μm in diameter.
Wistar Furth female rats, age 6 to 7 weeks and weighing 100 to 125 grams, were chosen for the study. The model is a metastatic transplantable rat mammary tumor. The tumor strain was the DMBA-4. Tumor cells (about 25,000 cells) were transplanted to the rats by injection into the superficial inguinal area between the skin and the muscle layer. Certain selected rats were injected with tumor cells in both left and right inguinal areas for simultaneous tumor growth.
The rats were fed a special food, a high saturated fat diet, to facilitate the growth of the tumor. The tumor usually grew to about 1 to 4 cm^3 within 10 to 14 days of tumor transplantation. In most cases the rat tumors were treated before they grew beyond 5 cm^3.
Before laser treatment, anesthesia was applied (100 μl xylazine and ketamine solution IM) and the hair overlaying the tumor was clipped and shaved. After the treatment, the rats were maintained in separate cages and still fed with the same high fat diet. […]

CC1(C)C(/C=C/C=C/C=C/C=C2\N(CCCCS(=O)(=O)O)c3ccc4ccccc4c3C2(C)C)=[N+](CCCCS(=O)(=O)[O-])c2ccc3ccccc3c21 [ICG-H2O, indocyanine green]
effect on survival rate (second group, treated by laser with ICG-H2O solution, vs control): did not show any improvement on the survival rate | Survival Days (whole group, laser treated, data up to Jan. 16, 1995): 29.0 ± 3.5 days | average survival time after the tumor transplant (whole group, laser treated, up to Apr. 1, 1995): 29.0 days
